US20210115104A1, “AMYLIN ANALOGUES” (Zealand Pharma A/S, priority 2015, published 2021)
pEC50: −log10 of the molar value. *1 amine or outer side, *2 acyl side, *3 side chain or, on linkers, in order; H or OH if unused. Where a SMILES comes first, the peptide text is derived from it. Bridges are numbered along the chain shown (N, C = ends). [ ]: non-standard residue; d: D form. The star is where a group is joined. C20 diacid = O=C(O)CCCCCCCCCCCCCCCCCCC(=O)*; γGlu = O=C(O)[C@H](CCC(=O)[*:2])N[*:1]; Hyp = O=C(O)[C@@H]1C[C@@H](O)CN1; NMeI = CC[C@H](C)[C@H](NC)C(=O)O; Aad = N[C@@H](CCCC(=O)O)C(=O)O; Sar = CNCC(=O)O

Columns and labels:
[1] = target: T1, human calcitonin receptor (hCTR2) (Homo sapiens, UniProt P30988); assay: hCTR2 cAMP assay (AlphaScreen) in COS7 cells; format: cell-based; details: cAMP induction, COS7 cells expressing hCTR2; Table 1; read-out: hCTR2 EC50
T1 construct: expressed in transfected cells
T1 sequence (P30988 25-474): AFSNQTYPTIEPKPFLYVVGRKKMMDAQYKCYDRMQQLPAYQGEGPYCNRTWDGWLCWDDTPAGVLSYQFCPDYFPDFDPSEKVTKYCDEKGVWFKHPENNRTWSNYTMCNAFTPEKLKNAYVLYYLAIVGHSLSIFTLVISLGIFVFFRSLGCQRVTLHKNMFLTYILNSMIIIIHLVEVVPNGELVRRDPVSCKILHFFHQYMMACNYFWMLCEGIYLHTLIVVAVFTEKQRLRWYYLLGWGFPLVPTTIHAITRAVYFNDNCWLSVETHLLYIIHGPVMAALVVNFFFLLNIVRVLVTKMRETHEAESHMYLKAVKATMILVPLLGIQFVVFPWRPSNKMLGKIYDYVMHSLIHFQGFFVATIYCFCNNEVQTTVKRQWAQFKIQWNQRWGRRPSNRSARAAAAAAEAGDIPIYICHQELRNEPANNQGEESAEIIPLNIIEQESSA
Method in brief: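 Stable hCTR2 clone in RAMP-naïve COS7 cells stimulated 15 min at 37 °C with increasing peptide concentrations in Tyrode buffer pH 7.4 containing IBMX and 0.1% casein. cAMP in lysates measured by AlphaScreen; EC50 from 4-parameter logistic fit.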

[2] = Assessment of chemical stability (RP-HPLC normalized purity); format: physicochemical; details: 7 days, 40° C., Table 1; for Normalized purity after 7 days, 40° C., pH 4: pH 4, 0.2 mg/ml; for Normalized purity after 7 days, 40° C., pH 6: pH 6, 0.2 mg/ml; for Normalized purity after 7 days, 40° C., pH 7.5: pH 7.5, 0.2 mg/ml; for Normalized purity after 7 days, 40° C., pH 9: pH 9, 0.2 mg/ml
Method in brief: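 Peptides at 0.2 mg/ml in water adjusted to pH 4, 6, 7.5 or 9, incubated at 40° C for 7 days. Main-peak area-% by RP-HPLC (C8 ammonium formate or C18 TFA gradient, UV 220 nm), normalized to T=0 as 100.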

[3] = target: T2, human amylin receptor 3 (hAMYR3), hCTR2 co-expressed with hRAMP3 (Homo sapiens, UniProt O60896+P30988); assay: hAMYR3 cAMP assay (AlphaScreen) in COS7 cells; format: cell-based; details: cAMP induction, COS7 cells expressing hAMYR3; Table 1; read-out: hAMYR3 EC50
T2 construct: expressed in transfected cells
T2 sequence (P30988 25-474): T1 sequence (P30988 25-474)
T2 sequence (O60896 24-148 partner): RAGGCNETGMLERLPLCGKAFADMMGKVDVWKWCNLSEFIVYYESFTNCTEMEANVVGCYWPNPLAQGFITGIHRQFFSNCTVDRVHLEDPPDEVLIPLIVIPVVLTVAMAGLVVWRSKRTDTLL
Method in brief: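 Stable COS7 clone co-expressing hCTR2 and hRAMP3 was exposed to increasing peptide concentrations in Tyrode buffer (pH 7.4) with 100 µM IBMX and 0.1% casein for 15 min at 37 °C. Lysate cAMP was measured by AlphaScreen; EC50 came from 4-parameter logistic fitting.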

Row | pEC50 [1] | Normalized purity after 7 days, 40° C., pH 4 [2] | Normalized purity after 7 days, 40° C., pH 6 [2] | Normalized purity after 7 days, 40° C., pH 7.5 [2] | Normalized purity after 7 days, 40° C., pH 9 [2] | pEC50 [3] | SMILES
1 | 9.92 | A (A = >90%) | A (A = >90%) | B (B = 70-90%) | B (B = 70-90%) | 9.77 | CC[C@H](C)[C@@H](C(=O)N[C@@H](CC(C)C)C(=O)N[C@@H](CO)C(=O)N[C@@H](CO)C(=O)N[C@H](C(=O)N[C@@H](CCC(=O)O)C(=O)N[C@H](C(=O)NCC(=O)N[C@@H](CO)C(=O)N[C@@H](CO)C(=O)N[C@H](C(=O)N1C[C@H](O)C[C@H]1C(N)=O)[C@@H](C)O)C(C)C)[C@@H](C)O)N(C)C(=O)[C@H](C)NC(=O)CN(C)C(=O)[C@H](Cc1ccccc1)NC(=O)[C@H](CO)NC(=O)[C@H](CO)NC(=O)[C@H](CCCNC(=N)N)NC(=O)[C@H](CCC(N)=O)NC(=O)[C@H](CC(C)C)NC(=O)[C@H](Cc1ccccc1)NC(=O)[C@H](Cc1c[nH]cn1)NC(=O)[C@H](C)NC(=O)[C@H](CC(C)C)NC(=O)[C@H](CCCNC(=N)N)NC(=O)[C@H](CCC(N)=O)NC(=O)[C@@H](NC(=O)[C@H](C)NC(=O)[C@@H]1CSSC[C@H](NC(=O)[C@H](CCCNC(=N)N)NC(=O)CC[C@H](NC(=O)CCCCCCCCCCCCCCCCCCC(=O)O)C(=O)O)C(=O)N[C@@H](CC(N)=O)C(=O)N[C@@H]([C@@H](C)O)C(=O)N[C@@H](C)C(=O)N[C@@H]([C@@H](C)O)C(=O)N1)[C@@H](C)O [Compound 69, [19CD]-isoGlu-R-C( )-NTAT-C( )-ATQRLAHFLQRSSF-Gly(Me)-A-Ile(Me)-LSSTEVGSST-Hyp-NH2] ({C20 diacid-γGlu}-RCNTATCATQRLAHFLQRSSF[Sar]A[NMeI]LSSTEVGSST[Hyp]-NH2; disulfide 2-7)
2 | 9.89 | A (A = >90%) | A (A = >90%) | A (A = >90%) | A (A = >90%) | 9.55 | CC[C@H](C)[C@@H](C(=O)N[C@@H](CC(C)C)C(=O)N[C@@H](CO)C(=O)N[C@@H](CO)C(=O)N[C@H](C(=O)N[C@@H](CCC(=O)O)C(=O)N[C@H](C(=O)NCC(=O)N[C@@H](CO)C(=O)NCC(=O)N[C@H](C(=O)N1CCC[C@H]1C(N)=O)[C@@H](C)O)C(C)C)[C@@H](C)O)N(C)C(=O)[C@H](C)NC(=O)CN(C)C(=O)[C@H](Cc1ccccc1)NC(=O)[C@H](CO)NC(=O)[C@H](CO)NC(=O)[C@H](CCCNC(=N)N)NC(=O)[C@H](CCC(N)=O)NC(=O)[C@H](CC(C)C)NC(=O)[C@H](Cc1ccccc1)NC(=O)[C@H](CC(=O)O)NC(=O)[C@H](C)NC(=O)[C@H](CC(C)C)NC(=O)[C@H](CCCNC(=N)N)NC(=O)[C@H](CCC(N)=O)NC(=O)[C@@H](NC(=O)[C@H](C)NC(=O)[C@@H]1CSSC[C@H](NC(=O)[C@H](CCCNC(=N)N)NC(=O)CC[C@H](NC(=O)CCCCCCCCCCCCCCCCCCC(=O)O)C(=O)O)C(=O)N[C@@H](CC(N)=O)C(=O)N[C@@H]([C@@H](C)O)C(=O)N[C@@H](C)C(=O)N[C@@H]([C@@H](C)O)C(=O)N1)[C@@H](C)O [Compound 80, [19CD]-isoGlu-R-C( )-NTAT-C( )-ATQRLADFLQRSSF-Gly(Me)-A-Ile(Me)-LSSTEVGSGTP-NH2] ({C20 diacid-γGlu}-RCNTATCATQRLADFLQRSSF[Sar]A[NMeI]LSSTEVGSGTP-NH2; disulfide 2-7)
3 | 10.00 | A (A = >90%) | A (A = >90%) | A (A = >90%) | A (A = >90%) | 9.64 | CC[C@H](C)[C@@H](C(=O)N[C@@H](CC(C)C)C(=O)N[C@@H](CO)C(=O)N[C@@H](CO)C(=O)N[C@H](C(=O)N[C@@H](CCC(=O)O)C(=O)N[C@H](C(=O)NCC(=O)N[C@@H](CO)C(=O)NCC(=O)N[C@H](C(=O)N1C[C@H](O)C[C@H]1C(N)=O)[C@@H](C)O)C(C)C)[C@@H](C)O)N(C)C(=O)[C@H](C)NC(=O)CN(C)C(=O)[C@H](Cc1ccccc1)NC(=O)[C@H](CO)NC(=O)[C@H](CO)NC(=O)[C@H](CCCNC(=N)N)NC(=O)[C@H](CCC(N)=O)NC(=O)[C@H](CC(C)C)NC(=O)[C@H](Cc1ccccc1)NC(=O)[C@H](CC(=O)O)NC(=O)[C@H](C)NC(=O)[C@H](CC(C)C)NC(=O)[C@H](CCCNC(=N)N)NC(=O)[C@H](CCC(N)=O)NC(=O)[C@@H](NC(=O)[C@H](C)NC(=O)[C@@H]1CSSC[C@H](NC(=O)[C@H](CCCNC(=N)N)NC(=O)CC[C@H](NC(=O)CCCCCCCCCCCCCCCCCCC(=O)O)C(=O)O)C(=O)N[C@@H](CC(N)=O)C(=O)N[C@@H]([C@@H](C)O)C(=O)N[C@@H](C)C(=O)N[C@@H]([C@@H](C)O)C(=O)N1)[C@@H](C)O [Compound 81, [19CD]-isoGlu-R-C( )-NTAT-C( )-ATQRLADFLQRSSF-Gly(Me)-A-Ile(Me)-LSSTEVGSGT-Hyp-NH2] ({C20 diacid-γGlu}-RCNTATCATQRLADFLQRSSF[Sar]A[NMeI]LSSTEVGSGT[Hyp]-NH2; disulfide 2-7)
4 | 10.00 | A (A = >90%) | A (A = >90%) | A (A = >90%) | A (A = >90%) | 9.82 | CC[C@H](C)[C@@H](C(=O)N[C@@H](CC(C)C)C(=O)N[C@@H](CO)C(=O)N[C@@H](CO)C(=O)N[C@H](C(=O)N[C@@H](CCC(=O)O)C(=O)N[C@H](C(=O)NCC(=O)N[C@@H](CO)C(=O)N[C@@H](CC(N)=O)C(=O)N[C@H](C(=O)N1C[C@H](O)C[C@H]1C(N)=O)[C@@H](C)O)C(C)C)[C@@H](C)O)N(C)C(=O)[C@H](C)NC(=O)CN(C)C(=O)[C@H](Cc1ccccc1)NC(=O)[C@H](CO)NC(=O)[C@H](CO)NC(=O)[C@H](CCCNC(=N)N)NC(=O)[C@H](CCC(N)=O)NC(=O)[C@H](CC(C)C)NC(=O)[C@H](Cc1ccccc1)NC(=O)[C@H](CCCC(=O)O)NC(=O)[C@H](C)NC(=O)[C@H](CC(C)C)NC(=O)[C@H](CCCNC(=N)N)NC(=O)[C@H](CCC(N)=O)NC(=O)[C@@H](NC(=O)[C@H](C)NC(=O)[C@@H]1CSSC[C@H](NC(=O)[C@H](CCCNC(=N)N)NC(=O)CC[C@H](NC(=O)CCCCCCCCCCCCCCCCCCC(=O)O)C(=O)O)C(=O)N[C@@H](CC(N)=O)C(=O)N[C@@H]([C@@H](C)O)C(=O)N[C@@H](C)C(=O)N[C@@H]([C@@H](C)O)C(=O)N1)[C@@H](C)O [Compound 86, [19CD]-isoGlu-R-C( )-NTAT-C( )-ATQRLA-Aad-FLQRSSF-Gly(Me)-A-Ile(Me)-LSSTEVGSNT-Hyp-NH2] ({C20 diacid-γGlu}-RCNTATCATQRLA[Aad]FLQRSSF[Sar]A[NMeI]LSSTEVGSNT[Hyp]-NH2; disulfide 2-7)
5 | 10.00 | A (A = >90%) | A (A = >90%) | A (A = >90%) | A (A = >90%) | 9.66 | CC[C@H](C)[C@@H](C(=O)N[C@@H](CC(C)C)C(=O)N[C@@H](CO)C(=O)N[C@@H](CO)C(=O)N[C@H](C(=O)N[C@@H](CCC(=O)O)C(=O)N[C@H](C(=O)NCC(=O)N[C@@H](CO)C(=O)N[C@@H](CC(N)=O)C(=O)N[C@H](C(=O)N1CCC[C@H]1C(N)=O)[C@@H](C)O)C(C)C)[C@@H](C)O)N(C)C(=O)[C@H](C)NC(=O)CN(C)C(=O)[C@H](Cc1ccccc1)NC(=O)[C@H](CO)NC(=O)[C@H](CO)NC(=O)[C@H](CCCNC(=N)N)NC(=O)[C@H](CCC(N)=O)NC(=O)[C@H](CC(C)C)NC(=O)[C@H](Cc1ccccc1)NC(=O)[C@H](Cc1c[nH]cn1)NC(=O)[C@H](C)NC(=O)[C@H](CC(C)C)NC(=O)[C@H](CCCNC(=N)N)NC(=O)[C@H](CC(=O)O)NC(=O)[C@@H](NC(=O)[C@H](C)NC(=O)[C@@H]1CSSC[C@H](NC(=O)[C@H](CCCNC(=N)N)NC(=O)CC[C@H](NC(=O)CCCCCCCCCCCCCCCCCCC(=O)O)C(=O)O)C(=O)N[C@@H](CCC(N)=O)C(=O)N[C@@H]([C@@H](C)O)C(=O)N[C@@H](C)C(=O)N[C@@H]([C@@H](C)O)C(=O)N1)[C@@H](C)O [Compound 92, [19CD]-isoGlu-R-C( )-QTAT-C( )-ATDRLAHFLQRSSF-Gly(Me)-A-Ile(Me)-LSSTEVGSNTP-NH2] ({C20 diacid-γGlu}-RCQTATCATDRLAHFLQRSSF[Sar]A[NMeI]LSSTEVGSNTP-NH2; disulfide 2-7)
